{
  "source": "PubChem BioAssay AID2060503",
  "about": "(Molecular Pharmacology Branch, DTP, NCI, 2025)",
  "system": "817829-284-R-J1-PDC complex spheroids, viability",
  "assay": "Anticancer human tumor 817829-284-R-J1-PDC patient-derived colon adenocarcinoma cell line growth inhibition [GQUAD]",
  "settings": "for viability, T/C: stronger effect = lower value",
  "from_the_text": "DNA G-quadruplex Stabilizer Agents in Combinations in Complex Spheroids\nA high-throughput screen of multi-cell type tumor spheroids was designed to identify active combinations of DNA G-quadruplex stabilizer agents and targeted small molecules. Complex spheroids include a stromal component modeled by human endothelial cells (HUVEC) and fibroblasts modeled by human mesenchymal stem cells (MSCs). The concentration ranges selected for each drug and investigational agent were based upon clinically achievable concentrations if the clinical Cmax of the agent was known.\nCompounds. The drugs and investigational agents: pidnarulex (CX-5461; NSC782164), APTO-253 (NSC789042), BRACO-19 (NSC847499), peposertib (NSC802822), ceralasertib (NSC780249), elimusertib (NSC800525), camonsertib (NSC841442), AZD-1390 (NSC803789), olaparib (NSC753686), talazoparib (NSC767125), ART-558 (NSC835418), sotorasib (NSC818433), MRTX-1133 (NSC836407), SN-38 (NSC673596), topotecan (NSC609699), etoposide (NSC141540), doxorubicin (NSC123127), gemcitabine (NSC613327), 5-fluorouracil (NSC19893), paclitaxel (NSC125973), vemurafenib (NSC761431), panobinostat (NSC761190), R-306465 (JNJ-16241199; NSC773264), adavosertib (NSC754352), TP-3654 (NSC805149), carboplatin (NSC241240), KSQ-4279 (NSC840948), and staurosporine (NSC755774) were obtained from the National Cancer Institute (NCI) Developmental Therapeutics Program Chemical Repository (34). The FDA-approved anticancer drug set is available from the NCI Developmental Therapeutics Program. […] The stock solutions were prepared in dimethyl sulfoxide (DMSO, Sigma-Aldrich, St. Louis, MO, cat. D2650) at 800-fold the tested concentration and stored at -70 degrees C prior to their use. All drugs and investigational agents were tested over a range starting from a high concentration at or near the clinical Cmax and decreasing in half-log increments. If the clinical Cmax for an agent had not been determined, the highest concentration tested was 10 microM.\n2.3 Cell Culture. All cells were maintained in an incubator at 37 degrees C and 5% CO2 with 95% humidity. The PDC lines were cultured according to standard operating procedures established by the NCI PDMR. All PDCs were thawed and cultured in Matrigel-coated flasks prepared with a working solution of 1X Ham's F-12 nutrient mix, without supplementation (Invitrogen, cat. 11765054), 100 U/mL penicillin-streptomycin (Invitrogen, cat. 15140122), and 2.5% Matrigel (Corning Inc., cat. 354248) for the first three passages. The 857933-349-R-J2-PDC line was cultured in 6C/Colon 1B media, which includes advanced DMEM/F-12 (Thermo Fisher Scientific, cat. 12634028), 10 mM HEPES (Thermo Fisher Scientific, cat. 15630080), 1X GlutaMAX supplement (Thermo Fisher Scientific, cat. 35050061), 0.1 mg/mL primocin (InvivoGen, cat. ant-pm-2), 10% defined fetal bovine serum, heat inactivated (HyClone Laboratories Inc., cat. SH30070.03HI), 50% L-WRN conditioned media (ATCC, cat. CRL-3276), 1.25 mM N-Acetyl-L-cysteine (Sigma-Aldrich, cat. A9165), 10 mM nicotinamide (Sigma-Aldrich, cat. N0636), 1X B-27 supplement (Thermo Fisher Scientific, cat. 17504044), 1X N-2 supplement (Thermo Fisher Scientific, cat. 17502048), 10 microM Y-27632 dihydrochloride (Tocris Bioscience, cat. 1254), and 50 ng/mL human EGF recombinant protein (Thermo Fisher Scientific, cat. PHG0311). The 485176-168-R4-J1-PDC line was cultured in Panc media, which includes all 6C/Colon 1B media components plus 100 ng/mL human FGF-10 (Thermo Fisher Scientific, cat. 100-26), 500 nM SB-431542 (Selleckchem, cat. S1067), and gastrin (Tocris, cat. 3006).\n[…]",
  "note": "pIC50: −log10 of the molar value. Several values for one entry are separate records, joined by “and”; a condition that tells them apart may be missing. Identical values can stand only once.",
  "data": [
    {"compound": "O=C(c1cc(Cc2n[nH]c(=O)c3ccccc23)ccc1F)N1CCN(C(=O)C2CC2)CC1", "note": "+ Cc1cnc(CNC(=O)c2c(=O)c3ccc(N4CCCN(C)CC4)nc3n3c2sc2ccccc23)cn1;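 also: spheroids exposed to agents for 7 days before readout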;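 as to viability, T/C: percent viability relative to DMSO vehicle control taken as 100%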", "values": [
      {"measurement": "pIC50", "setting": "curve of first compound, second compound 0.0316 µM", "value": 5.97},
      {"measurement": "pIC50", "setting": "curve of first compound, second compound 0.1 µM", "value": "> 7.50"},
      {"measurement": "pIC50", "setting": "curve of first compound, second compound 0.316 µM", "value": "> 7.50"},
      {"measurement": "pIC50", "setting": "curve of first compound, second compound 1 µM", "value": "> 7.50"},
      {"measurement": "pIC50", "setting": "curve of first compound, second compound 3.16 µM", "value": "> 7.50"},
      {"measurement": "pIC50", "setting": "curve of first compound, second compound 10 µM", "value": "> 7.50"},
      {"measurement": "viability, T/C", "setting": "second compound 0.0316 µM, first compound 0.0316 µM", "value": 78.9, "unit": "%"},
      {"measurement": "viability, T/C", "setting": "second compound 0.0316 µM, first compound 0.1 µM", "value": 65.2, "unit": "%"},
      {"measurement": "viability, T/C", "setting": "second compound 0.0316 µM, first compound 0.316 µM", "value": 58.5, "unit": "%"},
      {"measurement": "viability, T/C", "setting": "second compound 0.0316 µM, first compound 1 µM", "value": 51.6, "unit": "%"},
      {"measurement": "viability, T/C", "setting": "second compound 0.0316 µM, first compound 3.16 µM", "value": 44.2, "unit": "%"},
      {"measurement": "viability, T/C", "setting": "second compound 0.0316 µM, first compound 10 µM", "value": 35.6, "unit": "%"},
      {"measurement": "viability, T/C", "setting": "second compound 0.1 µM, first compound 0.0316 µM", "value": 30.9, "unit": "%"},
      {"measurement": "viability, T/C", "setting": "second compound 0.1 µM, first compound 0.1 µM", "value": 33.5, "unit": "%"},
      {"measurement": "viability, T/C", "setting": "second compound 0.1 µM, first compound 0.316 µM", "value": 32.9, "unit": "%"},
      {"measurement": "viability, T/C", "setting": "second compound 0.1 µM, first compound 1 µM", "value": 32.1, "unit": "%"},
      {"measurement": "viability, T/C", "setting": "second compound 0.1 µM, first compound 3.16 µM", "value": 33.8, "unit": "%"},
      {"measurement": "viability, T/C", "setting": "second compound 0.1 µM, first compound 10 µM", "value": 29.9, "unit": "%"},
      {"measurement": "viability, T/C", "setting": "second compound 0.316 µM, first compound 0.0316 µM", "value": 24.3, "unit": "%"},
      {"measurement": "viability, T/C", "setting": "second compound 0.316 µM, first compound 0.1 µM", "value": 24.5, "unit": "%"},
      {"measurement": "viability, T/C", "setting": "second compound 0.316 µM, first compound 0.316 µM", "value": 25.1, "unit": "%"},
      {"measurement": "viability, T/C", "setting": "second compound 0.316 µM, first compound 1 µM", "value": 23.7, "unit": "%"},
      {"measurement": "viability, T/C", "setting": "second compound 0.316 µM, first compound 3.16 µM", "value": 26.4, "unit": "%"},
      {"measurement": "viability, T/C", "setting": "second compound 0.316 µM, first compound 10 µM", "value": 27.4, "unit": "%"},
      {"measurement": "viability, T/C", "setting": "second compound 1 µM, first compound 0.0316 µM", "value": 18.6, "unit": "%"},
      {"measurement": "viability, T/C", "setting": "second compound 1 µM, first compound 0.1 µM", "value": 23.9, "unit": "%"},
      {"measurement": "viability, T/C", "setting": "second compound 1 µM, first compound 0.316 µM", "value": 20.3, "unit": "%"},
      {"measurement": "viability, T/C", "setting": "second compound 1 µM, first compound 1 µM", "value": 22.8, "unit": "%"},
      {"measurement": "viability, T/C", "setting": "second compound 1 µM, first compound 3.16 µM", "value": 23.1, "unit": "%"},
      {"measurement": "viability, T/C", "setting": "second compound 1 µM, first compound 10 µM", "value": 23.4, "unit": "%"},
      {"measurement": "viability, T/C", "setting": "second compound 3.16 µM, first compound 0.0316 µM", "value": 18.1, "unit": "%"},
      {"measurement": "viability, T/C", "setting": "second compound 3.16 µM, first compound 0.1 µM", "value": 21, "unit": "%"},
      {"measurement": "viability, T/C", "setting": "second compound 3.16 µM, first compound 0.316 µM", "value": 21.3, "unit": "%"},
      {"measurement": "viability, T/C", "setting": "second compound 3.16 µM, first compound 1 µM", "value": 19, "unit": "%"},
      {"measurement": "viability, T/C", "setting": "second compound 3.16 µM, first compound 3.16 µM", "value": 20, "unit": "%"},
      {"measurement": "viability, T/C", "setting": "second compound 3.16 µM, first compound 10 µM", "value": 21.4, "unit": "%"},
      {"measurement": "viability, T/C", "setting": "second compound 10 µM, first compound 0.0316 µM", "value": 0.17, "unit": "%"},
      {"measurement": "viability, T/C", "setting": "second compound 10 µM, first compound 0.1 µM", "value": 0.18, "unit": "%"},
      {"measurement": "viability, T/C", "setting": "second compound 10 µM, first compound 0.316 µM", "value": 0.22, "unit": "%"},
      {"measurement": "viability, T/C", "setting": "second compound 10 µM, first compound 1 µM", "value": 0.2, "unit": "%"},
      {"measurement": "viability, T/C", "setting": "second compound 10 µM, first compound 3.16 µM", "value": 0.22, "unit": "%"},
      {"measurement": "viability, T/C", "setting": "second compound 10 µM, first compound 10 µM", "value": 0.21, "unit": "%"}
    ]},
    {"compound": "O=c1[nH]cc(F)c(=O)[nH]1", "values": [
      {"measurement": "viability, T/C", "setting": "compound 0.0316 µM", "value": "97.6% and 102% and 99.2%"},
      {"measurement": "viability, T/C", "setting": "compound 0.1 µM", "value": "94.3% and 91.8% and 102%"},
      {"measurement": "viability, T/C", "setting": "compound 0.316 µM", "value": "127% and 111% and 106%"},
      {"measurement": "viability, T/C", "setting": "compound 1 µM", "value": "59.1% and 63.2% and 70.3%"},
      {"measurement": "viability, T/C", "setting": "compound 3.16 µM", "value": "39.4% (2×) and 42.5%"},
      {"measurement": "viability, T/C", "setting": "compound 10 µM", "value": "30.5% and 32.8% and 30.7%"},
      {"measurement": "pIC50", "setting": "curve of compound", "value": "5.81 and 5.76 and 5.67"}
    ]},
    {"compound": "COc1cccc2c1C(=O)c1c(O)c3c(c(O)c1C2=O)CC(O)(C(=O)CO)CC3OC1CC(N)C(O)C(C)O1", "note": "(stereo not drawn)", "values": [
      {"measurement": "viability, T/C", "setting": "compound 0.0316 µM", "value": "100% and 82% and 106%"},
      {"measurement": "viability, T/C", "setting": "compound 0.1 µM", "value": "32.7% and 42.4% and 30.9%"},
      {"measurement": "viability, T/C", "setting": "compound 0.316 µM", "value": "30.1% and 39% and 26.2%"},
      {"measurement": "viability, T/C", "setting": "compound 1 µM", "value": "9.58% and 10.5% and 8.06%"},
      {"measurement": "viability, T/C", "setting": "compound 3.16 µM", "value": "0.57% and 0.58% and 0.61%"},
      {"measurement": "viability, T/C", "setting": "compound 10 µM", "value": "0.32% and 0.4% and 0.19%"},
      {"measurement": "pIC50", "setting": "curve of compound", "value": "7.07 and 7.00 and 7.09"}
    ]},
    {"compound": "CC(C)n1c(=O)n(C)c2cnc3cc(F)c(-c4ccc(OCCCN5CCCCC5)nc4)cc3c21", "values": [
      {"measurement": "viability, T/C", "setting": "compound 0.0316 µM", "value": "106% and 107% and 100%"},
      {"measurement": "viability, T/C", "setting": "compound 0.1 µM", "value": "101% and 102% and 97.5%"},
      {"measurement": "viability, T/C", "setting": "compound 0.316 µM", "value": "95.1% and 105% and 102%"},
      {"measurement": "viability, T/C", "setting": "compound 1 µM", "value": "89.8% and 100% and 89.2%"},
      {"measurement": "viability, T/C", "setting": "compound 3.16 µM", "value": "104% and 113% and 101%"},
      {"measurement": "viability, T/C", "setting": "compound 10 µM", "value": "107% and 103% and 60.3%"},
      {"measurement": "pIC50", "setting": "curve of compound", "value": "< 5.00"}
    ]}
  ]
}
